Measured values from US20060134738A1, “Gene expression inducing fusion protein and method for controlling gene expression Induction” (priority 2003, published 2006).

Experiments:
Assay type in all cases: cell-based
[1] = tested on: proteins containing CVLS, CVLL or SVLS boxes in HeLa cells; test: Subcellular localization of fusion proteins by fluorescence microscopy (FIGS. 6A and B); settings: treatment 8 hours, immunofluorescence with anti-HA antibody
From the text: Moreover, the subcellular localization of proteins containing CVLS, CVLL or SVLS boxes was verified.
To do this, these boxes were fused with the YFP protein (yellow fluorescent protein), and all the fusion proteins were cloned with an HA sequence in the N-terminal position. The constructs were transiently transfected into HeLa cells, and the localization of the fusion proteins was followed by fluorescence microscopy after immunofluorescence with an anti-HA antibody (FIGS. 6A and B, in color).

[2] = tested on: R17-4G-CAAX constructs (CVLS, CVLL, SVLS) in HeLa cells; test: Translation activation in HeLa clones with integrated reporter, transiently transfected with R17-4G-CAAX constructs (FIG. 5); settings: for activation of translation relative to the DMSO controls, R17-4G-SVLS: construct neither farnesylated nor geranylated; for activation of translation relative to the DMSO controls, R17-4G-CVLS: construct with farnesylations box; for activation of translation relative to the DMSO controls, R17-4G-CVLL: construct with geranylations box
Protocol: The pCRL138 or pCRL138-R17 reporter sequences are integrated into the genome of HeLa cells, and various R17-4G-CAAX constructs—where CAAX can be farnesylated, “CVLS”, or geranylgeranylated, “CVLL”, or no longer undergo any post-translational modifications of this type, “SVLS”,—are transiently transfected into these two clones.
After transfection, the cells are treated with FTI 277 (farnesyltransferase inhibitor) or GGTI 298 (geranyltransferase inhibitor).

[3] = tested on: farnesylation of R17-4G-CVLS; test: LucF/LucR induction in HeLa clone with integrated R17-4G-CVLS, prenyltransferase inhibitors (FIG. 2A, 2B); settings: for induction (quotient of LucF and LucR relative to the DMSO control): reporters pCRL138 and pCRL138-R17, FIG. 2A
Protocol: The nucleic acid encoding the R17-4G-CVLS protein is integrated into the genome of HeLa cells. The reporter plasmids pCRL138 and pCRL138-R17 are transiently transfected into this clone. The products that act on farnesylation of R17-4G-CVLS are then sought.
DMSO is the solvent in which the products (FTI 277 and GGTI 298) that are added to the culture medium are dissolved, and therefore represents an induction control.
The white rectangles represent the RNA which carries the R17 protein recognition sequence. The black rectangles represent the activities obtained under the same conditions with an RNA sequence that is similar but no longer carries the R17 recognition; it is therefore the negative control for the first construct.
The induction is represented by the quotient of the LucF and LucR values measured directly in the presence of an agent (FTI 277 or GGTI 298), relative to the DMSO control.

HMGCoA-reductase = test: LucF/LucR ratio in HeLa cells stably transfected with R17-4G-CVLS, screening of HMGCoA-reductase inhibitors (FIG. 3); settings: for HMGCoA-reductase inhibiting activity (LucF/LucR ratio relative to a DMSO control): HeLa stably R17-4G-CVLS, reporters pCRL138 and pCRL138-R17, FIG. 3; for effect of mevalonate on the inhibitory activity (LucF/LucR ratio): in the presence of mevalonate, FIG. 3
From the text: HMGCoA-reductase, which synthesizes melavonate, is involved in isoprenylation, a post-translational modification of proteins such as 4G-CVLS.
In FIG. 3, the cells used during these tests are HeLa cells stably transfected with the plasmid encoding the R17-4G-CVLS fusion protein, and transiently transfected with the bicistronic reporter plasmids pCRL138 and pCRL138-R17.
The results are given in the form of the ratio of LucF/LucR activity in the presence of various pharmacological agents in the culture medium, relative to a DMSO control.
The model used also made it possible to screen potential HMGCoA-reductase inhibiting agents.

[4] = tested on: Farnesyl Pyrophosphate Synthase, also called FPP-synthase; test: LucF/LucR ratio in HeLa cells stably transfected with R17-4G-CVLS, FPP-synthase inhibitors (FIG. 4); settings: HeLa stably R17-4G-CVLS
From the text: This enzyme is required for the biosynthesis of farnesyl pyrophosphates.
In these tests represented in FIG. 4, the same cellular model as in b), stably transfected with R17-4G-CVLS, is used.

[5] = tested on: p27Kip1 protein expression in CHO (Chinese hamster ovary) cells; test: p27 expression by Western blotting in cotransfected CHO cells (FIG. 7); settings: 8 hours
From the text: The reporter plasmid constructed in the context of this example makes it possible to transcribe, in mammalian cells in culture ex vivo, a bicistronic RNA encoding a truncated H2-Kk protein (mouse MHC class I molecule) as a marker for selection of the transfected cells, and encoding the p27Kip1 protein which is a cell cycle-inhibiting protein. The bicistronic RNA also contains, in the intercistron space, a binding site for the R17 bacteriophage capsid protein. This bicistronic RNA is very diagrammatically represented in FIG. 7.
The effector plasmid used is the one for expressing the R17-4G-CVLS fusion protein.
CHO (Chinese hamster ovary) cells are transiently transfected with cationic liposomes using 10 pmol of reporter plasmids and 5 pmol of activator plasmids per 1 million cells. Twelve hours after transfection, the cells are treated for 8 hours with the farnesyltransferase inhibitor (Cys-Val-3(2-naphthyl)Ala-Met; Sigma C4433) at a final concentration of 1 μM in the culture medium. […]
The expression of the p27 protein (ap27 line) is examined by Western blotting with a monoclonal antibody (Ref. 610241, BD Bioscience Pharmingen). The expression of the R17-4G-CVLS fusion protein (aHA line) is detected by Western blotting using a monoclonal antibody against the HA peptide (Eurogentec) located at the NH2-terminal end of the R17-4G-CVLS protein. […]

[6] = tested on: translation of the second cistron (LucF/LucR ratio), SKHep-1 human hepatoma cells; test: LucF/LucR translation induction in transiently transfected SKHep-1 cells (FIG. 1); settings: inhibitor 15 μM, 1 to 8 hours
From the text: 1. “Reporter” plasmids that make it possible to transcribe, in the cells, a bicistronic RNA encoding the LucR (Renilla luciferase) reporter protein in the first cistron and the LucF (firefly luciferase) reporter protein in the second cistron. The plasmids pCRL30-R17 or pCRL138-R17 also contain, in the intercistron space of the mRNA, a binding site for the capsid protein of the R17 bacteriophage (plasmid).
2. Effector plasmids which will be able to express, in the cells: • a fusion protein consisting of the R17 phage capsid protein fused with the C-terminal region of the eIF4G translation initiation factor, for the plasmid pCI R17-4G, • a fusion protein consisting of the R17 phage capsid protein fused with the C-terminal region of the eIF4G translation initiation factor and a farnesylation protein domain (of protein sequence CVLS), for the plasmid pCI R17-4G-CVLS.
The procedure is carried out in the following way. SKHep-1 human hepatoma cells are transiently transfected with cationic liposomes using 10 pmol of reporter plasmids and 5 pmol of activator plasmids per 1 million cells. […]
After lysis of the cells, the LucR and LucF activities are assayed using the “Dual-Luciferase (TM) reporter system” kit (Promega E1980) on a Berthold LB96B luminescence device. […]

Molecule	activation of translation relative to the DMSO controls, R17-4G-SVLS [2]	activation of translation relative to the DMSO controls, R17-4G-CVLS [2]	activation of translation relative to the DMSO controls, R17-4G-CVLL [2]	induction (quotient of LucF and LucR relative to the DMSO control) ([3]; HeLa, integrated R17-4G-CVLS)	HMGCoA-reductase inhibiting activity (LucF/LucR ratio relative to a DMSO control) (HMGCoA-reductase)	effect of mevalonate on the inhibitory activity (LucF/LucR ratio) (HMGCoA-reductase)	further results
COC(=O)[C@H](CCSC)NC(=O)c1ccc(NC[C@@H](N)CS)cc1-c1ccccc1 [FTI 277]	neither of the two molecules is capable of activation	capable of activating translation	only GGTI 298 is capable of activating translation	has an inducer effect			relocalization of fusion proteins to the cytoplasm [1]: relocalizes only the YFP-CVLS and R17-4G-CVLS proteins to the cytoplasm; treatment time at which the maximum activation effect is obtained ([3]; HeLa, integrated R17-4G-CVLS, kinetics FIG. 2A): 8 h; reversibility of the activation effect (LucF/LucR activation ratio after removal of the product) ([3]; cells treated for 8 h with 1 μM, then product removed, FIG. 2B): reversible
COC(=O)[C@H](CC(C)C)NC(=O)c1ccc(NC[C@@H](N)CS)cc1-c1cccc2ccccc12 [GGTI 298]	neither of the two molecules is capable of activation	only FTI 277 is capable of activating translation	capable of activating translation	has no activation effect			
c1ccc(Cc2ccc(OCCN3CCCC3)cc2)cc1 [PBPE]					found to be an inhibitor of HMGCOA-reductase	compensated for by the presence of mevalonate	
CC/C(=C(\c1ccccc1)c1ccc(OCCN(C)C)cc1)c1ccccc1 [tamoxifen]					inhibits this enzyme even at low concentrations	reversed or compensated for by mevalonate	farnesylation / FPP-synthase inhibition (LucF/LucR ratio) [4]: is also an FPP-synthase inhibitor
Cys-Val-3(2-naphthyl)Ala-Met [farnesyltransferase inhibitor]							amount of p27 (Western blotting) ([5]; CHO cotransfected with pR17-4G-CVLS and pK-R17-p27, inhibitor 1 μM): An increase in the amount of p27; amount of fusion protein produced (Western blotting, anti-HA) ([5]; CHO cotransfected, with or without inhibitor 1 μM): identical with or without treatment with the inhibitor; level of translation induced by the expression of the R17-4G fusion protein under inhibitor treatment (LucF/LucR ratio) ([6]; SKHep-1, effector pCI R17-4G): not modulated; increase in translation induced by the R17-4G-CAAX inducer fusion protein under inhibitor treatment (LucF/LucR ratio) ([6]; SKHep-1, effector pCI R17-4G-CVLS): dependent on the time of treatment
